Reference: the supplement of paper PMC13380429

Assays:
Conditions in all cases: 72 h
HepG2 [1] = assay: relative viability EC50 (midpoint between 100% and the lowest measured viability); higher = less toxic
Calu-3 [2] = assay: as above
Vero E6 [3] = assay: as above
Caco-2 [4] = assay: as above
HepG2 [5] = assay: drug sensitivity score (DSS) for viability; higher = more toxic; extreme values may be limits of the assay
Calu-3 [6] = assay: as above
Vero E6 [7] = assay: as above
Caco-2 [8] = assay: as above
HepG2 [9] = assay: cell viability relative to DMSO; higher = less toxic
Calu-3 [10] = assay: as above
Vero E6 [11] = assay: as above
Caco-2 [12] = assay: as above
U2OS [13] = assay: relative viability EC50 (midpoint between 100% and the lowest measured viability); higher = less toxic
U2OS [14] = assay: drug sensitivity score (DSS) for viability; higher = more toxic; extreme values may be limits of the assay
U2OS [15] = assay: cell viability relative to DMSO; higher = less toxic

SMILES	relative viability EC50 (HepG2 [1]) [µM]	relative viability EC50 (Calu-3 [2]) [µM]	relative viability EC50 (Vero E6 [3]) [µM]	relative viability EC50 (Caco-2 [4]) [µM]	drug sensitivity score (HepG2 [5])	drug sensitivity score (Calu-3 [6])	drug sensitivity score (Vero E6 [7])	drug sensitivity score (Caco-2 [8])	cell viability (HepG2 [9]; 1 nM) [%]	cell viability (HepG2 [9]; 10 nM) [%]	cell viability (HepG2 [9]; 100 nM) [%]	cell viability (HepG2 [9]; 1000 nM) [%]	cell viability (HepG2 [9]; 10000 nM) [%]	cell viability (Calu-3 [10]; 1 nM) [%]	cell viability (Calu-3 [10]; 10 nM) [%]	cell viability (Calu-3 [10]; 100 nM) [%]	cell viability (Calu-3 [10]; 1000 nM) [%]	cell viability (Calu-3 [10]; 10000 nM) [%]	cell viability (Vero E6 [11]; 1 nM) [%]	cell viability (Vero E6 [11]; 10 nM) [%]	cell viability (Vero E6 [11]; 100 nM) [%]	cell viability (Vero E6 [11]; 1000 nM) [%]	cell viability (Vero E6 [11]; 10000 nM) [%]	cell viability (Caco-2 [12]; 1 nM) [%]	cell viability (Caco-2 [12]; 10 nM) [%]	cell viability (Caco-2 [12]; 100 nM) [%]	cell viability (Caco-2 [12]; 1000 nM) [%]	cell viability (Caco-2 [12]; 10000 nM) [%]	relative viability EC50 (U2OS [13]) [µM]	drug sensitivity score (U2OS [14])	cell viability (U2OS [15]; 1 nM) [%]	cell viability (U2OS [15]; 10 nM) [%]	cell viability (U2OS [15]; 100 nM) [%]	cell viability (U2OS [15]; 1000 nM) [%]	cell viability (U2OS [15]; 10000 nM) [%]
O=c1cc(-c2ccc(O)cc2)oc2cc(O)cc(O)c12 [apigenin]	> 10	> 10	> 10	> 10	0	0	0	0	92.8	105	97.7	102	94	104	103	101	99.3	94.7	101	101	101	95.2	92	93.9	94.2	105	94.8	90.4							
CCOc1nc2cccc(C(=O)OCc3oc(=O)oc3C)c2n1Cc1ccc(-c2ccccc2-c2noc(=O)[nH]2)cc1 [azilsartan-medoxomil]		> 10	> 10	> 10		0	0	0.1						104	102	96.3	101	93.1	113	107	107	99.4	101	107	86.4	83.3	107	85.1	> 10	0	98.7	101	94.7	97.3	92.8
COc1ccccc1Oc1c(NS(=O)(=O)c2ccc(C(C)(C)C)cc2)nc(-c2ncccn2)nc1OCCO [bosentan]		> 10	> 10	> 10		0	0.2	0.9						102	94.2	99.1	114	102	95.1	100	94.3	93.9	85.3	106	98.4	103	96.6	81.1	> 10	0	98	102	98	99.9	91
N#Cc1c(N)nc(SCc2csc(-c3ccc(Cl)cc3)n2)c(C#N)c1-c1ccc(OCCO)cc1 [capadenoson]	> 10	> 10	> 10		0	0	0	0.8	89	108	95.3	105	107	98	102	104	104	95.6	93	98.5	95.6	102	102	102	94.6	98.8	104	74.8	> 10	0.6	99.2	95.2	101	100	79.3
N=C(N)NCCC[C@@H](NC(=O)[C@@H]1CCCN1C(=O)[C@@H]1CSSCCC(=O)N[C@@H](Cc2ccc(O)cc2)C(=O)N[C@@H](Cc2ccccc2)C(=O)N[C@@H](CCC(N)=O)C(=O)N[C@@H](CC(N)=O)C(=O)N1)C(=O)NCC(N)=O [desmopressin-acetate]	> 10	> 10	> 10		0	0	0		106	96.2	110	107	106	101	92.7	110	93.4	102	105	108	106	101	99.4						> 10	0	97.5	93.8	96.6	96.3	100
CC(C)=CCC[C@](C)(O)[C@H]1CC[C@]2(C)[C@@H]1[C@H](O)C[C@@H]1[C@@]3(C)CC[C@H](O)C(C)(C)[C@@H]3[C@@H](O)C[C@]12C [hemomex-s]		> 10	> 10	> 10		0	0	0						105	109	112	105	93.4	96.1	93.9	96.6	98.8	99.2	113	106	103	111	96.9	> 10	0	97.4	101	99.8	101	100
COc1ccc(CCN)cc1OC [homoveratrylamine]	> 10	> 10	> 10		0	0	0	2.9	110	103	98.2	108	115	100	85.6	113	98.2	95.7	108	106	94.9	97.5	96.4	89.4	77.6	110	79.4	73	> 10	0	94.6	96.1	97.6	97.3	101
O=c1[nH]c(=O)n([C@H]2C[C@H](O)[C@@H](CO)O2)cc1I [idoxuridine]		> 10	> 10	> 10	2.8	0	0.3	0	101	104	95.8	94	62.5	106	96.6	110	93	96.5	99.1	104	97.8	99.8	84.5	101	101	94	105	95.9	> 10	0	98.4	103	101	106	99.6
CNC(C)(C)Cc1ccccc1 [mephentermine]	> 10	> 10	> 10	> 10	0	0	0	0	102	99.6	106	104	91.4	101	97.4	95.5	102	99.8	108	97.3	97	105	104	97.1	105	104	106	96.8							
Clc1ccc(COC(Cn2ccnc2)c2ccc(Cl)cc2Cl)c(Cl)c1 (centres undefined) [miconazole]	> 10	> 10	> 10		1.5	0.5	0	2.4	97.6	109	103	96.2	75.5	101	98.8	102	91.6	87.1	106	106	101	102	97.2	96.3	98	96.2	85.9	72.1	> 10	0	95.5	94.9	102	94.2	92.4
CN(c1nccc(=O)[nH]1)C1CCN(c2nc3ccccc3n2Cc2ccc(F)cc2)CC1 [mizolastine]		> 10	> 10	> 10		0	0	0						103	104	99.5	102	108	97.5	101	98.6	97.8	107	89.5	99.9	98	100	98.3	> 10	0	101	98.5	101	103	102
CC1=C(/C=C/C(C)=C/C=C/C(C)=C/C=O)C(C)(C)CCC1 [retinaldehyde]		> 10	> 10	> 10		0.6	0	0						98.9	108	104	88.8	87.4	99.2	95.1	95.2	95.3	99.9	100	104	89.5	97.8	90.4	> 10	0	104	107	101	99.4	92.9
Oc1c(I)cc(I)c(O)c1I [riodoxol]	> 10	> 10	> 10	> 10	0	0	0	0	97.2	91.1	101	93.2	96.9	103	95.1	103	104	98.5	101	99.3	99.6	101	94.6	94.9	93.8	98.1	93.5	104							
CCCN(CCC)CCc1cccc2c1CC(=O)N2 [ropinirole]	> 10	> 10	> 10	> 10	0	0	0	0	99.1	100	87.7	103	104	92.9	106	99.7	89.8	103	100	101	101	99.3	96.3	97.8	108	100	104	105							
Cc1c(C(=O)Nc2ccc(N3C[C@@H](C)O[C@@H](C)C3)nc2)cccc1-c1ccc(OC(F)(F)F)cc1 [sonidegib]		> 10	> 10	> 10	1.4	0	0.2	0.7	104	96.8	99.7	98.9	71.3	109	98.4	92.7	97.9	97.2	105	109	102	104	84	102	98.8	95.7	98	81.4	> 10	0.3	99.5	94.1	102	96.5	87.3
Cn1nnc(-c2ccc(-c3ccc(N4C[C@H](CO)OC4=O)cc3F)cn2)n1 [tedizolid]		> 10	> 10	> 10	5.1	0	0	0.6	111	95.4	99.5	76.9	55.7	103	95.4	99.6	108	106	94	99.6	98.3	101	92.9	113	106	94.2	93.3	82.2	> 10	0	101	102	96.7	96.3	94.1
